From patent publication US20140187548A1, “6 SUBSTITUTED IMIDAZOPYRAZINES FOR USE AS MPS-1 AND TKK INHIBITORS IN THE TREATMENT OF HYPERPROLIFERATIVE DISORDERS” (BAYER INTELLECTUAL PROPERTY GMBH, priority 2010, published 2014)

target: T1, human kinase Mps-1 (Homo sapiens, UniProt P33981); test: Mps-1 kinase assay (TR-FRET); type: biochemical; details: N-terminally GST-tagged human full length recombinant Mps-1; 10 μM ATP; 1 μM peptide substrate; 15 min pre-incubation; 60 min at 22° C.
T1 construct: N-terminally GST-tagged human full length recombinant Mps-1 kinase; GST (N); purchased Invitrogen, Karslruhe, Germany PV4071
T1 sequence (P33981 1-857): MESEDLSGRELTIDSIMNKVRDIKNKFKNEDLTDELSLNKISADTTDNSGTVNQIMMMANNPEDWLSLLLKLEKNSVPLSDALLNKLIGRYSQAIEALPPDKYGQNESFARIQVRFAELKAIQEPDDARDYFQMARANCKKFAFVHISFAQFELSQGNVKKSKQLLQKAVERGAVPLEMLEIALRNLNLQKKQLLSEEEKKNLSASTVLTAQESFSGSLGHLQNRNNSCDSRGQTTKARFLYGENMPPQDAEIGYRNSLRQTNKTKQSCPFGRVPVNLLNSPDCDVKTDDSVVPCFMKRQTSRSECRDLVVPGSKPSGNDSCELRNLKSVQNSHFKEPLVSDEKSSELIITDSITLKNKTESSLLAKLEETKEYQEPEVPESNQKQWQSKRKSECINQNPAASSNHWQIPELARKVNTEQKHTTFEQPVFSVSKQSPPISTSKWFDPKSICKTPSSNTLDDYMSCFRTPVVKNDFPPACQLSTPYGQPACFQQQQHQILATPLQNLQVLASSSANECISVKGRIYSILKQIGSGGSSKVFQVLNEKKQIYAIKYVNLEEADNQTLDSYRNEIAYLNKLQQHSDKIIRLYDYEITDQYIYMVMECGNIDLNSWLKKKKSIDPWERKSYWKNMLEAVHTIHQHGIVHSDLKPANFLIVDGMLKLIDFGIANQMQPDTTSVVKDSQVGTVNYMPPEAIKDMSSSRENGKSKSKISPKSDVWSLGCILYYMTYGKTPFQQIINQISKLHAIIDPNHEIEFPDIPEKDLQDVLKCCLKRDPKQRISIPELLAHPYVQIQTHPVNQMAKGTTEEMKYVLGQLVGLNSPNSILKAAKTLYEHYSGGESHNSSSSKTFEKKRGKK
Protocol: The human kinase Mps-1 phosphorylates a biotinylated substrate peptide. Detection of the phosphorylated product is achieved by time-resolved fluorescence resonance energy transfer (TR-FRET) from Europium-labelled anti-phospho-Serine/Threonine antibody as donor to streptavidin labelled with cross-linked allophycocyanin (SA-XLent) as acceptor. Compounds are tested for their inhibition of the kinase activity.
N-terminally GST-tagged human full length recombinant Mps-1 kinase (purchased from Invitrogen, Karslruhe, Germany, cat. no PV4071) was used. As substrate for the kinase reaction a biotinylated peptide of the amino-acid sequence […] (C-terminus in amide form, purchased from Biosynthan GmbH, Berlin) was used.
The concentration of Mps-1 in the assay was adjusted to the activity of the enzyme lot and was chosen appropriate to have the assay in the linear range, typical enzyme concentrations were in the range of about 1 nM (final conc. in the 5 μl assay volume).
The resulting mixture was incubated 1 h at 22° C. to allow the binding of the phosphorylated peptide to the anti-phospho(Ser/Thr)-Europium-antibody. Subsequently the amount of phosphorylated substrate was evaluated by measurement of the resonance energy transfer from the Europium-labelled anti-phospho(Ser/Thr) antibody to the Streptavidin-XLent. Therefore, the fluorescence emissions at 620 nm and 665 nm after excitation at 350 nm was measured in a Viewlux TR-FRET reader (PerkinElmer LAS, Rodgau-Jügesheim, Germany). The “blank-corrected normalized ratio” (a Viewlux specific readout, similar to the traditional ratio of the emissions at 665 nm and at 622 nm, in which blank and Eu-donor crosstalk are subtracted from the 665 nm signal before the ratio is calculated) was taken as the measure for the amount of phosphorylated substrate.

Compound	IC50 [nM]
O=C(NC1CC1)c1ccc(-c2cnc3c(NCC4CCC(C(F)(F)F)CC4)nc(-c4ccccc4)cn23)cc1 (mixture of isomers) [Example 2-86, N-cyclopropyl-4-[6-phenyl-8-([[4-(trifluoromethyl)cyclohexyl]methyl]amino)imidazo[1,2-a]pyrazin-3-yl]benzamide]	12.4
CC(C)CNc1nc(-c2cccc([N+](=O)[O-])c2)cn2c(-c3ccc(C(=O)NC4CC4)cc3)cnc12 [Example 1-2, N-cyclopropyl-4-{8-[(2-methylpropyl)amino]-6-(3-nitrophenyl)imidazo [1,2-a]pyrazin-3-yl} benzamide]	5.5
CC(C)CNc1nc(-c2ccc3c(c2)OCCO3)cn2c(-c3ccc(C(=O)NC4CC4)cc3)cnc12 [Example 1-3, N-cyclopropyl-4-{6-(2,3-dihydro-1,4-benzodioxin-6-yl)-8-[(2-methyl-propyl)amino]imidazo [1,2-a]pyrazin-3-yl} benzamide]	18.4
CC(C)CNc1nc(-c2cccc3ccccc23)cn2c(-c3ccc(C(=O)NC4CC4)cc3)cnc12 [Example 1-4, N-cyclopropyl-4-{8-[(2-methylpropyl)amino]-6-(naphthalen-1-yl)imidazo[1,2-a]pyrazin-3-yl}benzamide]	4.6
CC(C)CNc1nc(-c2cccc(CO)c2)cn2c(-c3ccc(C(=O)NC4CC4)cc3)cnc12 [Example 1-5, N-cyclopropyl-4-{6-[3-(hydroxymethyl)phenyl]-8-[(2-methylpropyl)amino]imidazo[1,2-a]pyrazin-3-yl}benzamide]	1.4
Cc1cccc(-c2cn3c(-c4ccc(C(=O)NC5CC5)cc4)cnc3c(NCC(C)C)n2)c1C [Example 1-9, N-cyclopropyl-4-{6-(2,3-dimethylphenyl)-8-[(2-methylpropyl)amino]imidazo[1,2-a]pyrazin-3-yl}benzamide]	2.4
CC(C)CNc1nc(-c2cc(Cl)cc(Cl)c2)cn2c(-c3ccc(C(=O)NC4CC4)cc3)cnc12 [Example 1-10, N-cyclopropyl-4-{6-(3,5-dichlorophenyl)-8-[(2-methylpropyl)amino]imidazo[1,2-a]pyrazin-3-yl}benzamide]	1110
COC(=O)c1cccc(-c2cn3c(-c4ccc(C(=O)NC5CC5)cc4)cnc3c(NCC(C)C)n2)c1 [Example 1-11, methyl 3-{3-[4-(cyclopropyl-carbamoyl)phenyl]-8-[(2-methylpropyl)amino]imidazo[1,2-a]pyrazin-6-yl}benzoate]	2.3
Cc1cc(-c2cn3c(-c4ccc(C(=O)NC5CC5)cc4)cnc3c(NCC(C)C)n2)cc(C)c1O [Example 1-12, N-cyclopropyl-4-{6-(4-hydroxy-3,5-dimethyl-phenyl)-8-[(2-methyl-propyl)amino]imidazo [1,2-a]pyrazin-3-yl} benzamide]	3.8
COc1cccc(-c2cn3c(-c4ccc(C(=O)NC5CC5)cc4)cnc3c(NCC(C)C)n2)c1F [Example 1-13, N-cyclopropyl-4-{6-(2-fluoro-3-methoxyphenyl)-8-[(2-methylpropyl)amino]imidazo[1,2-a]pyrazin-3-yl}benzamide]	7
CC(=O)Nc1ccccc1-c1cn2c(-c3ccc(C(=O)NC4CC4)cc3)cnc2c(NCC(C)C)n1 [Example 1-14, 4-{6-[2-(acetylamino)phenyl]-8-[(2-methyl-propyl)amino]imidazo [1,2-a]pyrazin-3-yl}-N-cyclopropylbenzamide]	11.2
CC(C)CNc1nc(-c2cccc(NS(C)(=O)=O)c2)cn2c(-c3ccc(C(=O)NC4CC4)cc3)cnc12 [Example 1-15, N-cyclopropyl-4-(8-[(2-methylpropyl)amino]-6-{3-[(methylsulfonyl)amino]phenyl}imidazo [1,2-a]pyrazin-3-yl) benzamide]	1.8
COc1cccc(-c2cn3c(-c4ccc(C(=O)NC5CC5)cc4)cnc3c(NCC(C)C)n2)c1OC [Example 1-17, N-cyclopropyl-4-{6-(2,3-dimethoxyphenyl)-8-[(2-methylpropyl)amino]imidazo[1,2-a]pyrazin-3-yl}benzamide]	14.4
CC(C)CNc1nc(-c2cccc3ncccc23)cn2c(-c3ccc(C(=O)NC4CC4)cc3)cnc12 [Example 1-20, N-cyclopropyl-4-{8-[(2-methylpropyl)amino]-6-(quinolin-5-yl)imidazo [1,2-a]pyrazin-3-yl} benzamide]	1
COc1cc(OC)cc(-c2cn3c(-c4ccc(C(=O)NC5CC5)cc4)cnc3c(NCC(C)C)n2)c1 [Example 1-21, N-cyclopropyl-4-{6-(3,5-dimethoxyphenyl)-8-[(2-methylpropyl)amino]imidazo[1,2-a]pyrazin-3-yl}benzamide]	19
CC(C)CNc1nc(-c2cccc3[nH]ccc23)cn2c(-c3ccc(C(=O)NC4CC4)cc3)cnc12 [Example 1-22, N-cyclopropyl-4-{6-(1H-indol-4-yl)-8-[(2-methyl-propyl)amino]imidazo [1,2-a]pyrazin-3-yl} benzamide]	2.6
CC(C)CNc1nc(-c2ccc3cc[nH]c3c2)cn2c(-c3ccc(C(=O)NC4CC4)cc3)cnc12 [Example 1-23, N-cyclopropyl-4-{6-(1H-indol-6-yl)-8-[(2-methyl-propyl)amino]imidazo [1,2-a]pyrazin-3-yl} benzamide]	21

Results, then the molecule that gave them:

IC50 [nM]	Compound
1.1	CC(C)CNc1nc(-c2ccc(C(C)O)cc2)cn2c(-c3ccc(C(=O)NC4CC4)cc3)cnc12 (racemic) [Example 6-2, (RS)N-cyclopropyl-4-{6-[4-(1-hydroxyethyl)phenyl]-8-(isobutylamino)imidazo[1,2-a]pyrazin-3-yl}benzamide]
2.3	CC(C)CNc1nc(-c2ccc(F)cc2)cn2c(-c3ccc(C(=O)NC4CC4)cc3)cnc12 [Example 1-6, N-cyclopropyl-4-{6-(4-fluorophenyl)-8-[(2-methylpropyl)amino]imidazo[1,2-a]pyrazin-3-yl}benzamide]
5.7	Cc1ccc(-c2cn3c(-c4ccc(C(=O)NC5CC5)cc4)cnc3c(NCC(C)C)n2)cc1 [Example 1-7, N-cyclopropyl-4-{6-(4-methylphenyl)-8-[(2-methylpropyl)amino]imidazo[1,2-a]pyrazin-3-yl}benzamide]
4.9	Cc1cccc(-c2cn3c(-c4ccc(C(=O)NC5CC5)cc4)cnc3c(NCC(C)C)n2)c1 [Example 1-8, N-cyclopropyl-4-{6-(3-methylphenyl)-8-[(2-methylpropyl)amino]imidazo[1,2-a]pyrazin-3-yl}benzamide]
2.7	CC(C)CNc1nc(-c2ccc(C(=O)N(C)C)cc2)cn2c(-c3ccc(C(=O)NC4CC4)cc3)cnc12 [Example 1-16, 4-{3-[4-(cyclopropyl-carbamoyl)phenyl]-8-[(2-methylpropyl)amino]imidazo[1,2-a]pyrazin-6-yl}-N,N-dimethyl-benzamide]
8.5	CSc1ccc(-c2cn3c(-c4ccc(C(=O)NC5CC5)cc4)cnc3c(NCC(C)C)n2)cc1 [Example 1-18, N-cyclopropyl-4-{8-[(2-methylpropyl)amino]-6-[4-(methylsulfanyl)phenyl]imidazo[1,2-a]pyrazin-3-yl}benzamide]
1.5	Cc1ccccc1-c1cn2c(-c3ccc(C(=O)NC4CC4)cc3)cnc2c(NCC(C)C)n1 [Example 1-19, N-cyclopropyl-4-{6-(2-methylphenyl)-8-[(2-methylpropyl)amino]imidazo[1,2-a]pyrazin-3-yl}benzamide]
1.1	CC(C)CNc1nc(-c2ccc(C(N)=O)cc2)cn2c(-c3ccc(C(=O)NC4CC4)cc3)cnc12 [Example 1-24, 4-{6-(4-carbamoylphenyl)-8-[(2-methylpropyl)amino]imidazo[1,2-a]pyrazin-3-yl}-N-cyclo-propylbenzamide]
